Results: article PMC9959553, “Promising Antifungal Molecules against Mucormycosis Agents Identified from Pandemic Response Box®: In Vitro and In Silico Analyses” (Journal of Fungi, 2023)

What follows are molecules tested on R. oryzae UCP1295 (assay: Screening of the Pandemic Response Box library at 5 µM). Settings: 48 h, Table S1, mean of the four values.
Assay type: cell-based, Rhizopus oryzae
In short: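 Compounds at 5 μM in RPMI 1640 with 2% glucose and MOPS (0.165 mol/L, pH 7.2), with conidia at 2 × 10^5/mL, incubated 48 h at 37 °C in 5% CO2. Growth read by OD at 600 nm; hits defined as ≥60% inhibition. Posaconazole (5 μM) and 1% DMSO as controls.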

Point of comparison: `OCCC#Cc1nc(-c2ccc(F)cc2)c(-c2ccncc2)n1CCCc1ccccc1` [MMV1580797], “% of growth inhibition, Mean” value -16.9%. Against it:
- Cc1[nH]c2ccccc2c1CCNCc1ccc(/C=C/C(=O)NO)cc1 [MMV010036] — higher, 1.8%
- Cc1ccc(NC(=O)c2ccc(CN3CCN(C)CC3)cc2)cc1Nc1nccc(-c2cccnc2)n1 [MMV009948] — higher, -3.0%
- OB1OCc2c1ccc(Cl)c2F [MMV1782226] — lower, -20.0%
- CN(C/C=C/C#CC(C)(C)C)Cc1cccc2ccccc12 [MMV1634359] — lower, -42.5%
- COc1ccc(NC(=O)c2cc3ccccn3n2)cc1 [MMV374187] — lower, -18.8%
- O=c1cc(NCCCN[C@@H]2CCOc3c(Br)cc(Br)cc32)[nH]c2ccsc12 [MMV1578884] — higher, -1.3%
- N[C@H](CCC(=O)N[C@@H](Cc1c[nH]c2ccccc12)C(=O)O)C(=O)O [MMV1581033] — higher, 2.8%
- CCCCSc1nc(N)c2[nH]c(=O)c(=O)n(Cc3ccccc3)c2n1 [MMV1579783] — lower, -34.5%
- O=C(Nc1ccccc1)N(Cc1cc(Br)ccc1O)c1ccc(F)cc1 [MMV1581552] — higher, -12.1%
- CC(=O)Oc1ccccc1C(=O)Nc1ncc([N+](=O)[O-])s1 [MMV688991] — higher, 5.4%
- Cc1ccccc1NC(=O)Nc1cccc([N+](=O)[O-])c1 [MMV1581029] — higher, 1.6%
- CONC(=N)c1ccc(-c2ccc(-c3ccc(C(=N)NOC)cc3)o2)cc1 [MMV000059] — lower, -38.5%
- O=C(NN1C(=O)[C@@H]2C3C=CC([C@H]4C[C@@H]34)[C@@H]2C1=O)c1ccc(C(F)(F)F)cc1 [MMV1782114] — higher, -5.7%
- Nc1nc2c(ncn2/C=C2/CC2(CO)CO)c(=O)[nH]1 [MMV1782210] — higher, -16.4%
- CCCCCc1ccc(C(=O)NCCn2cc(CCCCCc3c[nH]c(N)n3)nn2)cc1.Cl [MMV1580847] — higher, -16.8%
- Cc1ccc(Oc2ccccc2-c2csc(N=C3NCCCN3)n2)c(C)c1 [MMV1634493] — lower, -30.7%
- CC(Oc1ccc(Cl)cc1Cl)C(=O)NCc1ccc2c(c1)OCO2 (stereo not shown) [MMV1578925] — lower, -25.4%
- CCOc1noc2cc(OCCC3CCN(c4ccc(C)nn4)CC3)ccc12 [MMV1634071] — higher, -15.0%
- Clc1cc2nc(C3CCNCC3)n(Cc3ccc(CNCCc4c[nH]cn4)cc3)c2cc1Cl [MMV1580842] — higher, 0.4%
- O=C1NC(=O)C(Br)=C1Br [MMV1578554] — higher, -14.5%
- CCC[C@@H]1C[C@@H](C(=O)N[C@@H]([C@H]2O[C@H](SC)[C@H](O)[C@@H](O)[C@H]2O)[C@H](C)Cl)N(C)C1.Cl [MMV000051] — lower, -29.6%
- O=C1C=C(c2ccccc2)S(=O)(=O)c2ccccc21 [MMV1006203] — higher, -8.8%
- CC1(C)[C@H](C(=O)O)N2C(=O)C[C@H]2S1(=O)=O [MMV637945] — lower, -27.5%
- FC(F)(F)Oc1ccc(Nc2ccc3cccc(Cl)c3n2)cc1 [MMV1581032] — higher, -3.7%
- COc1ccc(OCc2ccc(COc3c(Cl)cccc3Cl)cc2)c(Cl)c1 [MMV1580485] — higher, -2.8%
- CS(=O)(=O)c1ccc(Oc2ccc(Cl)cc2)cc1 [MMV1634404] — higher, 4.1%
- CC[N+]1(C/C2=C/CCCCCC2)CCC(NC(=O)C2c3cc(Cl)ccc3Oc3ccc(Cl)cc32)CC1.[I-] (stereo not shown) [MMV1580489] — higher, -4.5%
- OC(Cn1cncn1)(Cn1cncn1)c1ccc(F)cc1F [MMV002337] — lower, -36.5%
- C=C(C)n1c(=O)n(Cc2ccccc2C)c2ccccc21 [MMV1579354] — lower, -31.3%
- NC(=O)c1[nH]c2ccc(S(N)(=O)=O)cc2c1-c1ccccc1 [MMV1581556] — lower, -42.8%
- COC(=O)Nc1nc2cc(Sc3ccccc3)ccc2[nH]1 [MMV003143] — higher, -14.1%
- O=C(Nc1ccc(F)cc1)c1nn(-c2ccccc2)c(=O)cc1Cl [MMV1578555] — lower, -18.6%
- CCc1cc(CCCOc2c(C)cc(-c3noc(C(F)(F)F)n3)cc2C)on1 [MMV1634556] — higher, 10.0%
- Nc1c(C(=O)NCc2ccco2)c2nc3ccccc3nc2n1CCN1CCCCC1 [MMV099714] — higher, -2.7%
- COc1ccc(C(C)(C)C)cc1NC(=O)C(=O)c1ccc(OCCN2CCOCC2)c2ccccc12 [MMV1782209] — higher, -5.8%
- Cc1cc(Nc2ccc(F)cc2)nc(SCc2nc3ccccc3[nH]2)n1 [MMV1582498] — lower, -17.0%
- C=CCc1cc(Cc2cnc(N)nc2N)cc(OC)c1O [MMV1580849] — lower, -19.9%
- O=C(N[C@H](Cc1cccc2ccccc12)C(=O)NCCc1c[nH]cn1)C1Cc2ccccc2C1 [MMV1782109] — higher, -14.0%
- Clc1ccc(Cn2c(CN3CCCC3)nc3ccccc32)cc1 [MMV002015] — higher, -4.7%
- Cc1[nH]c2ccccc2c1CC(=O)N[C@@H](Cc1ccccc1)C(=O)N(C)c1ccccc1 [MMV1580798] — higher, -2.6%
- CCOC(=O)Nc1cc(NC(C)CC(C)CN(CC)CC)c2nc(-c3ccccc3)c(-c3ccccc3)nc2n1 (stereo not shown) [MMV1633967] — lower, -28.6%
- O=C(O)c1cc(-c2ccccc2)nc2ccccc12 [MMV018362] — higher, -11.4%
- CC1=C(/C=C/C(C)=C/C=C/C(C)=C/C(=O)Nc2ccc(O)cc2)C(C)(C)CCC1 [MMV001793] — higher, -8.1%
- O=S(=O)(NCB(O)O)c1ccc(-c2nnn[nH]2)cc1C(F)(F)F [MMV1782411] — higher, -7.7%
- COc1ccccc1NC(=O)c1ccccc1Sc1ccc([N+](=O)[O-])cc1 [MMV1580484] — higher, -7.7%
- COc1cc(NCc2ccc3nc(N)nc(N)c3c2C)cc(OC)c1OC [MMV1580173] — higher, 46.8%
- Cl.Cl.NCCCc1ccccc1C(=O)Nc1ncc([N+](=O)O)s1 [MMV1579786] — higher, -16.7%
- CCc1oc2ccccc2c1C(=O)c1ccc(O)cc1 [MMV1578558] — lower, -39.8%
- CCCCN1C[C@H](O)[C@@H](O)[C@H](O)[C@H]1CO [MMV1782098] — higher, -8.6%
- CC(=O)NC[C@H]1CN(c2ccc(N3CCSCC3)c(F)c2)C(=O)O1 [MMV688756] — higher, -8.2%
- O=c1nc(N2CCN(CC3CCCCC3)CC2)sc2c([N+](=O)[O-])cc(C(F)(F)F)cc12 [MMV1578885] — higher, -14.2%
- CC[C@H](CO)Nc1nc(NCc2ccccc2)c2ncn(C(C)C)c2n1 [MMV003820] — higher, -13.4%
- C[C@H](NC(CC(=O)c1ccccc1C(F)(F)F)C(=O)O)c1ccccc1 (stereo partly shown) [MMV1579778] — higher, -13.5%
- Cc1nc2ccc(Oc3ccccc3)cc2c2c1CCN2CCc1ccccc1 [MMV1634399] — higher, -16.3%
- COc1ccc2cc3[n+](cc2c1OCCN(CCn1cncn1)Cc1ccc(F)cc1F)CCc1cc2c(cc1-3)OCO2 [MMV1593540] — higher, -0.6%
- Nc1cccc(-c2nc(N)nc(NC3Cc4ccccc4C3)n2)c1 [MMV1581555] — higher, -6.9%
- C[C@H]1[C@@H](c2cccc(C(F)(F)F)c2)OC(=O)N1C(=O)NCc1cncc2ccccc12 [MMV1593533] — higher, -13.8%
- Cc1cccc(C)c1C(=O)Nc1nc(-c2ccccn2)cc2ccccc12 [MMV1581558] — higher, 53.3%
- Fc1ccc(-c2nc(-c3c[nH]c4ccc(Br)cc34)[nH]c2-c2ccc(F)cc2)cc1 [MMV1593537] — higher, -11.7%
- CC(N)C12CC3CC(CC(C3)C1)C2 (stereo not shown) [MMV637855] — higher, 3.7%
- COc1cc(NC(=O)CN2C(=O)NC(c3ccccc3)(c3ccccc3)C2=O)cc(OC)c1 [MMV1578572] — higher, -14.6%
- Nc1nc2c(Cc3cccnc3)c[nH]c2c(=O)[nH]1 [MMV1782355] — higher, -12.7%
- CC[C@@H]1C(=O)OC[C@@H]1Cc1cncn1C.Cl [MMV002516] — higher, -16.1%
- C[N+]1(C)CCCC(OC(=O)C(O)(c2ccccc2)c2ccccc2)C1 (stereo not shown) [MMV002676] — higher, -16.3%
- COC1CC2CCC(C)C(O)(O2)C(=O)C(=O)N2CCCCC2C(=O)OC(C(C)CC2CCC(OCCO)C(OC)C2)CC(=O)C(C)/C=C(\C)C(O)C(OC)C(=O)C(C)CC(C)/C=C/C=C/C=C/1C (stereo not shown) [MMV639951] — higher, -2.4%
- COc1cc(Cc2cc(N)nc(N)n2)cc(OC)c1OC [MMV1579846] — higher, -11.6%
- CCc1nc(N)nc(N)c1C#CCc1ccccc1 [MMV1581549] — higher, 18.7%
- O=c1[nH]c(=O)n(Cc2cccc(Oc3ccccc3)c2)cc1Nc1ccccc1 [MMV1782107] — higher, -3.3%
- CC(=O)O[C@H]1C[C@@]2(C)[C@@H](C[C@@H](O)[C@H]3[C@@]4(C)CC[C@@H](O)[C@@H](C)[C@@H]4CC[C@@]32C)/C1=C(\CCC=C(C)C)C(=O)O [MMV1578575] — lower, -21.4%
